{
  "source": "paper PMC10871713",
  "about": "(Materials today. Nano, 2023)",
  "key": {"[1]": {"tested_on": "adipose-derived stem cells (ADSCs)", "assay": "ADSC attachment and spreading on protein crystals", "format": "cell-based, human", "conditions": "protein crystal surface passivated by covalent attachment of PEG; data not shown"}, "CJ^OPT protein crystal": {"tested_on": "CJ^OPT protein crystal", "design": "species or system Campylobacter jejuni"}, "[2]": {"conditions": "cyclic peptide; cited from earlier work"}, "streptavidin": {"tested_on": "streptavidin", "conditions": "AFM; streptavidin/biotin partners (Beebe et al.) ref 40, 41; cited from earlier work"}},
  "note": "Positions of bridges follow the written chain, without caps; N, C: chain ends. No end group written: not given here.",
  "data": [
    {"compound": "poly(ethylene glycol) [PEG]", "values": [
      {"measurement": "cell adhesion", "setting": "[1]", "value": "no cell adhesion"},
      {"measurement": "adsorption of PEG from solution by crystals", "setting": "CJ^OPT protein crystal", "value": "adsorbed by the crystals from solution within minutes"}
    ]},
    {"compound": "CWDDGWLC (disulfide 1-8 (inferred)) [IntP]", "values": [
      {"measurement": "binding to RGD", "setting": "[2]", "value": "binds RGD"}
    ]},
    {"compound": "O=C(O)CCCC[C@@H]1SC[C@@H]2NC(=O)N[C@@H]21", "note": "[biotin]", "values": [
      {"measurement": "ligand-receptor bond-rupture force", "setting": "streptavidin", "value": "442 ± 17", "unit": "pN"}
    ]}
  ]
}
